What all share (assay): Post-emergent Test III, herbicidal activity in wheat and barley
Holding throughout (type): in vivo

The test system of test [1] is PAPRH: common poppy (Papaver rhoeas). As to conditions: for pest or weed control at 35 g/ha / pest or weed control at 70 g/ha / pest or weed control at 140 g/ha: Papaver rhoeas, post-emergence, 504 h, read-out: Visual Growth Reduction (%) 21 Days After Application PAPRH; for pest or weed control at 35 g/ha: 35 g ai/ha; for pest or weed control at 70 g/ha: 70 g ai/ha; for GR50 PAPRH / GR80 PAPRH: probit analysis; for pest or weed control at 140 g/ha: 140 g ai/ha. A digest of the protocol: (§1)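 Plants at the second to third true-leaf stage, grown in a greenhouse at about 18/17 °C with a 14 h photoperiod, were sprayed post-emergence at 187 L/ha with the high rate and ½× to 1/16× serial dilutions in an acetone/DMSO/crop-oil/surfactant carrier. Injury was rated visually at 21 d on a 0–100% scale, and GR20–GR90 were derived by probit analysis.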

Test [2] deals with CIRAR: Canada thistle (Cirsium arvense). As to conditions: Table 8, 21 d; for pest or weed control at 35 g/ha / pest or weed control at 70 g/ha: Cirsium arvense, post-emergence, 504 h, post-emergent, read-out: Visual Growth Reduction (%) 21 Days After Application CIRAR; for pest or weed control at 35 g/ha: 35 g ai/ha; for pest or weed control at 70 g/ha: 70 g ai/ha; for GR50 CIRAR: dose for 50 percent growth reduction; for GR50 CIRAR / GR80 CIRAR: probit analysis; for GR80 CIRAR: dose for 80 percent growth reduction. A digest of the protocol: as §1

In test [3] the test system is GALAP: cleavers (Galium aparine). As to conditions: Table 8, 21 d; for pest or weed control at 35 g/ha / pest or weed control at 70 g/ha: Galium aparine, post-emergence, 504 h, post-emergent, read-out: Visual Growth Reduction (%) 21 Days After Application GALAP; for pest or weed control at 35 g/ha: 35 g ai/ha; for pest or weed control at 70 g/ha: 70 g ai/ha; for GR50 GALAP: dose for 50 percent growth reduction; for GR50 GALAP / GR80 GALAP: probit analysis; for GR80 GALAP: dose for 80 percent growth reduction. The procedure, abridged: as §1

The test system of test [4] is ALOMY: black-grass (Alopecurus myosuroides). Conditions: for pest or weed control at 35 g/ha / pest or weed control at 70 g/ha / pest or weed control at 140 g/ha: Alopecurus myosuroides, post-emergence, 504 h, read-out: Visual Growth Reduction (%) 21 Days After Application ALOMY; for pest or weed control at 35 g/ha: 35 g ai/ha; for pest or weed control at 70 g/ha: 70 g ai/ha; for pest or weed control at 140 g/ha: 140 g ai/ha; for GR50 ALOMY / GR80 ALOMY: probit analysis, 21 days after application; for GR50 ALOMY: dose for growth reduction of 50 percent; for GR80 ALOMY: dose for growth reduction of 80 percent. A digest of the protocol: as §1

For test [5], the system named is BROTE: downy brome (Bromus tectorum). Conditions: for pest or weed control at 35 g/ha / pest or weed control at 70 g/ha / pest or weed control at 140 g/ha: Bromus tectorum, post-emergence, 504 h, read-out: Visual Growth Reduction (%) 21 Days After Application BROTE; for pest or weed control at 35 g/ha: 35 g ai/ha; for pest or weed control at 70 g/ha: 70 g ai/ha; for pest or weed control at 140 g/ha: 140 g ai/ha; for GR50 BROTE / GR80 BROTE: probit analysis, 21 days after application; for GR50 BROTE: dose for growth reduction of 50 percent; for GR80 BROTE: dose for growth reduction of 80 percent. A digest of the protocol: as §1

In test [6] the test system is PHAMI: lesser canary grass (Phalaris minor). As to conditions: for pest or weed control at 35 g/ha / pest or weed control at 70 g/ha / pest or weed control at 140 g/ha: Phalaris minor, post-emergence, 504 h, read-out: Visual Growth Reduction (%) 21 Days After Application PHAMI; for pest or weed control at 35 g/ha: 35 g ai/ha; for pest or weed control at 70 g/ha: 70 g ai/ha; for pest or weed control at 140 g/ha: 140 g ai/ha; for GR50 PHAMI / GR80 PHAMI: probit analysis, 21 days after application; for GR50 PHAMI: dose for growth reduction of 50 percent; for GR80 PHAMI: dose for growth reduction of 80 percent. The procedure, abridged: as §1

The subject of test [7] is STEME: common chickweed (Stellaria media). Conditions: for pest or weed control at 35 g/ha / pest or weed control at 70 g/ha / pest or weed control at 140 g/ha: Stellaria media, post-emergence, 504 h, read-out: Visual Growth Reduction (%) 21 Days After Application STEME; for pest or weed control at 35 g/ha: 35 g ai/ha; for pest or weed control at 70 g/ha: 70 g ai/ha; for pest or weed control at 140 g/ha: 140 g ai/ha; for GR50 STEME / GR80 STEME: probit analysis, 21 days after application; for GR50 STEME: dose for growth reduction of 50 percent; for GR80 STEME: dose for growth reduction of 80 percent. The procedure, abridged: as §1

The mark [8] stands for this setting: Table 8, dose for 50 percent growth reduction, 21 d.
Setting [9] is: Table 8, dose for 80 percent growth reduction, 21 d.
Where [10] appears, read: dose for growth reduction of 50 percent, 21 days after application.
[11] abbreviates: dose for growth reduction of 80 percent, 21 days after application.

Where two headings read alike, the source gives them in different places. Bounds are passed on as bounds.

Turning to `COc1c(N)nc(-c2ccc(Br)c(F)c2)nc1C(=O)O` [Compound 113, 6-Amino-2-(4-bromo-3-fluorophenyl)-5-methoxypyrimidine-4-carboxylic acid], in test [1] (Table 8, post-emergent, 21 d), the pest or weed control at 35 g/ha lay within 95 to 100% and the pest or weed control at 70 g/ha lay in the range of 95 to 100%. The “GR50 PAPRH” value in test [1] (setting [8]) amounted to 1 g ai/ha. For the same compound, in test [1] (setting [9]), the “GR80 PAPRH” value worked out at 1 g ai/ha. For the same compound, in test [2], the pest or weed control at 35 g/ha fell in the range of 75 to 84%, the pest or weed control at 70 g/ha lay within 85 to 94%, the “GR50 CIRAR” value came to 7 g ai/ha and the “GR80 CIRAR” value amounted to 33 g ai/ha. In test [3], the pest or weed control at 35 g/ha is 95 to 100%, the pest or weed control at 70 g/ha lay within 95 to 100%, the “GR50 GALAP” value was determined as 5 g ai/ha and the “GR80 GALAP” value is reported as 12 g ai/ha.

Turning to `COC(=O)c1nc(-c2ccc(F)cc2)c(F)c(N)c1Cl` [Compound 204], in test [4], the pest or weed control at 35 g/ha lay in the range of 0 to 29%, the pest or weed control at 70 g/ha lay within 45 to 59%, the pest or weed control at 140 g/ha was 45 to 59% and the “GR50 ALOMY” value came out at 105 g ai/ha. Also, the “GR80 ALOMY” value in test [4] is on record as above 140 g ai/ha. Besides, in test [5], the pest or weed control at 35 g/ha was 0 to 29%, the pest or weed control at 70 g/ha was in the range of 0 to 29%, the pest or weed control at 140 g/ha was 30 to 44% and the “GR50 BROTE” value is on record as above 140 g ai/ha. Moreover, the “GR80 BROTE” value in test [5] was above 140 g ai/ha.

In the case of `Nc1c(F)c(-c2ccc(Cl)c(F)c2)nc(C(=O)O)c1Cl` [Compound 217], in test [6], the pest or weed control at 35 g/ha lay within 85 to 94%, the pest or weed control at 70 g/ha lay within 85 to 94%, the pest or weed control at 140 g/ha was in the range of 85 to 94% and the “GR50 PHAMI” value came out at 11 g ai/ha. In test [6], the “GR80 PHAMI” value is on record as 30 g ai/ha. In addition, in test [4], the pest or weed control at 35 g/ha was 75 to 84%, the pest or weed control at 70 g/ha is 85 to 94%, the pest or weed control at 140 g/ha fell in the range of 85 to 94% and the “GR50 ALOMY” value is reported as 12 g ai/ha. In addition, the “GR80 ALOMY” value in test [4] is 31 g ai/ha. In test [5], the pest or weed control at 35 g/ha was in the range of 75 to 84%, the pest or weed control at 70 g/ha fell in the range of 85 to 94%, the pest or weed control at 140 g/ha lay in the range of 85 to 94% and the “GR50 BROTE” value was found to be 15 g ai/ha. The “GR80 BROTE” value in test [5] is 33 g ai/ha. Moreover, in test [1], the pest or weed control at 35 g/ha was 95 to 100%, the pest or weed control at 70 g/ha lay within 95 to 100% and the pest or weed control at 140 g/ha is 95 to 100%. Moreover, the “GR50 PAPRH” value in test [1] (setting [10]) is reported as 1 g ai/ha. In addition, the “GR80 PAPRH” value in test [1] (setting [11]) is 1 g ai/ha. Further, in test [7], the pest or weed control at 35 g/ha lay in the range of 60 to 74%, the pest or weed control at 70 g/ha was in the range of 75 to 84%, the pest or weed control at 140 g/ha was in the range of 75 to 84% and the “GR50 STEME” value worked out at 28 g ai/ha. Further, in test [7], the “GR80 STEME” value is 88 g ai/ha.

As for `Nc1cc(-c2ccc(Br)c(F)c2)nc(C(=O)O)c1Cl` [Compound 110, 4-Amino-6-(4-bromo-3-fluorophenyl)-3-chloropicolinic acid], in test [1] (Table 8, post-emergent, 21 d), the pest or weed control at 35 g/ha lay within 95 to 100% and the pest or weed control at 70 g/ha was 95 to 100%. For the same compound, in test [1] (setting [8]), the “GR50 PAPRH” value worked out at 1 g ai/ha. Besides, in test [1] (setting [9]), the “GR80 PAPRH” value is 1 g ai/ha. Besides, in test [2], the pest or weed control at 35 g/ha was 75 to 84%, the pest or weed control at 70 g/ha lay in the range of 75 to 84%, the “GR50 CIRAR” value amounted to 19 g ai/ha and the “GR80 CIRAR” value is 52 g ai/ha. For the same compound, in test [3], the pest or weed control at 35 g/ha lay in the range of 95 to 100%, the pest or weed control at 70 g/ha lay within 95 to 100%, the “GR50 GALAP” value turned out to be 1 g ai/ha and the “GR80 GALAP” value stood at 1 g ai/ha.

As for `Nc1cc(-c2ccc(Br)c(F)c2F)nc(C(=O)O)c1Cl` [Compound 91], in test [6], the pest or weed control at 35 g/ha lay in the range of 30 to 44%, the pest or weed control at 70 g/ha was in the range of 30 to 44%, the pest or weed control at 140 g/ha fell in the range of 30 to 44% and the “GR50 PHAMI” value is above 140 g ai/ha. In test [6], the “GR80 PHAMI” value is above 140 g ai/ha. For the same compound, in test [4], the pest or weed control at 35 g/ha lay within 45 to 59%, the pest or weed control at 70 g/ha was 45 to 59%, the pest or weed control at 140 g/ha was in the range of 45 to 59% and the “GR50 ALOMY” value was determined as 98 g ai/ha. For the same compound, in test [4], the “GR80 ALOMY” value is recorded as above 140 g ai/ha. Further, in test [5], the pest or weed control at 35 g/ha was 45 to 59%, the pest or weed control at 70 g/ha fell in the range of 45 to 59%, the pest or weed control at 140 g/ha lay in the range of 30 to 44% and the “GR50 BROTE” value was 29 g ai/ha. Besides, the “GR80 BROTE” value in test [5] is recorded as above 140 g ai/ha. Also, in test [1], the pest or weed control at 35 g/ha lay within 95 to 100%, the pest or weed control at 70 g/ha lay within 95 to 100% and the pest or weed control at 140 g/ha was 95 to 100%. The “GR50 PAPRH” value in test [1] (setting [10]) was 1 g ai/ha. In test [1] (setting [11]), the “GR80 PAPRH” value is 1 g ai/ha. Also, in test [7], the pest or weed control at 35 g/ha lay in the range of 0 to 29%, the pest or weed control at 70 g/ha lay in the range of 30 to 44%, the pest or weed control at 140 g/ha is 45 to 59% and the “GR50 STEME” value is above 140 g ai/ha. For the same compound, in test [7], the “GR80 STEME” value is above 140 g ai/ha.

On to `COC(=O)c1nc(-c2ccc(F)c(F)c2F)c(F)c(N)c1Cl` [Compound 186], for which, in test [4], the pest or weed control at 35 g/ha lay within 0 to 29%, the pest or weed control at 70 g/ha was in the range of 0 to 29%, the pest or weed control at 140 g/ha was 0 to 29% and the “GR50 ALOMY” value was above 140 g ai/ha. Further, the “GR80 ALOMY” value in test [4] is above 140 g ai/ha. Moreover, in test [5], the pest or weed control at 35 g/ha lay within 0 to 29%, the pest or weed control at 70 g/ha is 0 to 29%, the pest or weed control at 140 g/ha was 0 to 29% and the “GR50 BROTE” value is above 140 g ai/ha. Moreover, in test [5], the “GR80 BROTE” value is above 140 g ai/ha.

Source of the values: patent US9113629B2, “4-amino-6-(4-substituted-phenyl)-picolinates and 6-amino-2-(4-substituted-phenyl)-pyrimidine-4-carboxylates and their use as herbicides” (DOW AGROSCIENCES LLC, priority 2013, dated 2015).
